According to US11000033B2, “Ketone or oxime compound, and herbicide” (NISSAN CHEMICAL CORPORATION, priority 2014, dated 2021):

With `CON=C(C)CC1CC(OC)=C(c2c(C)cc(OC)cc2C)C1=O` (stereo not shown) [6-048] the melting point was 82 to 85 °C.
